{"source": "PubChem BioAssay AID623873", "about": "(Sanford-Burnham Center for Chemical Genomics, 2012)", "note": "Activity calls are given as the source filed them.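 How the source made its calls: active means IC50 at or below 20 µM in the dose response; inactive means the rest.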", "data": [{"tested_on": "HL-1 cardiomyocytes, 2-deoxyglucose injury, ATP luminescence, 2 h", "test": "protection of HL-1 cells from ATP loss, SAR follow-up, 2-deoxyglucose, ATP luminescence (AID 623873)", "values": [{"smiles": "CCCn1c(SC(C(=O)Nc2cccc(OC)c2)c2ccccc2)nc2ccccc2c1=O", "note": "(configuration not stated)", "IC50": "> 79 µM (inactive)"}, {"smiles": "COc1ccc(-n2cc(-c3ccccc3)c3c(N4CCCCC4)ncnc32)cc1", "IC50": "> 79 µM (inactive)"}, {"smiles": "Cc1ccccc1N(C(=O)c1snc(C(N)=O)c1N)C(C(=O)NCc1ccc(F)cc1)c1ccc(O)cc1", "note": "(configuration not stated)", "IC50": "> 79 µM (inactive)"}, {"smiles": "COc1ccc(S(=O)(=O)N(Cc2cccnc2)Cc2cc3ccccc3[nH]c2=O)cc1", "IC50": "> 79 µM (inactive)"}, {"smiles": "Cc1ccc2cc(CN(C)S(=O)(=O)c3ccc(F)cc3)c(=O)[nH]c2c1", "IC50": "> 79 µM (inactive)"}, {"smiles": "Cc1ccc(C)c(S(=O)(=O)N2CCN(C(=O)c3cc4cc(C)ccc4nc3C)CC2)c1", "IC50": "> 79 µM (inactive)"}, {"smiles": "COc1cccc(CN(C)C(=O)c2cc(-c3ccccc3)nc3ccc(C)cc23)c1OC", "IC50": "> 79 µM (inactive)"}, {"smiles": "O=C(C(=O)N1CCCCC1)c1c(-c2ccccc2)[nH]c2ccccc12", "IC50": "> 79 µM (inactive)"}, {"smiles": "COc1cccc(NC(=O)CN(C)C(=O)c2cc(-c3cccs3)nn2-c2ccccc2)c1", "IC50": "> 79 µM (inactive)"}, {"smiles": "COc1ccc(-c2cc(C(=O)NCc3ccco3)c3ccccc3n2)cc1OC", "IC50": "20.8 µM (inactive)"}, {"smiles": "CCN(CC)C(=O)C(=O)c1c(-c2ccccc2)[nH]c2ccccc12", "IC50": "> 79 µM (inactive)"}, {"smiles": "CCN(CC(=O)Nc1ccc(OC)cc1)C(=O)c1cc(-c2cccs2)nn1-c1ccccc1", "IC50": "2.27 µM"}, {"smiles": "COc1ccc2cc(C(=O)N3CCN(S(=O)(=O)c4cc(C)ccc4C)CC3)c(C)nc2c1", "IC50": "> 79 µM (inactive)"}, {"smiles": "COc1cc(-c2cc(C(=O)Nc3cccc(C(C)=O)c3)c3ccccc3n2)cc(OC)c1OC", "IC50": "1.76 µM"}, {"smiles": "NC(=O)c1nsc(C(=O)N(Cc2ccccc2)C(C(=O)NCc2ccc(F)cc2)c2ccc(O)cc2)c1N", "note": "(configuration not stated)", "IC50": "> 79 µM (inactive)"}, {"smiles": "COc1ccc(-c2cc(C(=O)N(C)Cc3ccc(OC)c(OC)c3OC)c3ccccc3n2)cc1OC", "IC50": "2.9 µM"}, {"smiles": "COc1ccc2cc(C(=O)N3CCN(S(=O)(=O)c4ccc(C)cc4C)CC3)c(C)nc2c1", "IC50": "> 79 µM (inactive)"}, {"smiles": "Cc1ccc(S(=O)(=O)N(Cc2cccnc2)Cc2cc3ccccc3[nH]c2=O)cc1", "IC50": "> 79 µM (inactive)"}, {"smiles": "COc1ccc2c(c1OC)C(=O)N1c3ccccc3C(=O)N(c3cccc(Br)c3)C21", "note": "(configuration not stated)", "IC50": "0.684 µM"}, {"smiles": "CCCN(CC(=O)Nc1ccccc1OC)C(=O)c1cc(-c2cccs2)nn1-c1ccccc1", "IC50": "> 79 µM (inactive)"}, {"smiles": "COc1ccc(-c2cc(C(=O)NCc3ccccc3)c3ccccc3n2)cc1OC", "IC50": "> 79 µM (inactive)"}, {"smiles": "COc1ccccc1N1C(=O)c2ccccc2N2C(=O)c3c(ccc(OC)c3OC)C12", "note": "(configuration not stated)", "IC50": "29.4 µM (inactive)"}, {"smiles": "COc1cccc(NC(=O)C(Sc2nc3ccccc3c(=O)n2CC(C)C)c2ccccc2)c1", "note": "(configuration not stated)", "IC50": "> 79 µM (inactive)"}, {"smiles": "NC(=O)c1nsc(C(=O)N(c2cccc(F)c2)C(C(=O)NC2CCCC2)c2ccc(O)cc2)c1N", "note": "(configuration not stated)", "IC50": "> 79 µM (inactive)"}, {"smiles": "COc1ccc(NC(=O)CN(C)C(=O)c2cc(-c3cccs3)nn2-c2ccccc2)cc1", "IC50": "> 79 µM (inactive)"}, {"smiles": "COc1ccc2c(c1OC)C(=O)N1c3ccccc3C(=O)N(c3ccccc3C)C21", "note": "(configuration not stated)", "IC50": "11.7 µM (inactive)"}, {"smiles": "COCCn1c(SC(C(=O)Nc2cc(C)ccc2C)c2ccccc2)nc2ccccc2c1=O", "note": "(configuration not stated)", "IC50": "> 79 µM (inactive)"}, {"smiles": "COc1ccc(-n2cc(-c3ccccc3)c3c(N4CCCC4)ncnc32)cc1", "IC50": "> 79 µM (inactive)"}, {"smiles": "COc1cccc(CN(C)C(=O)c2cc(-c3ccc(OC)c(OC)c3)nc3ccccc23)c1", "IC50": "5.52 µM"}, {"smiles": "COCCNC(=O)C(c1ccc(O)cc1)N(C(=O)c1snc(C(N)=O)c1N)c1ccccc1F", "note": "(configuration not stated)", "IC50": "> 79 µM (inactive)"}, {"smiles": "O=C(C(=O)N1CCCC1)c1c(-c2ccccc2)[nH]c2ccccc12", "IC50": "> 79 µM (inactive)"}, {"smiles": "Cc1ccc(-c2[nH]c3ccccc3c2C(=O)C(=O)N(C)C)cc1", "IC50": "> 79 µM (inactive)"}, {"smiles": "CCN(CC)S(=O)(=O)c1cc(C(=O)N2CCN(Cc3cccc4cccnc34)CC2)ccc1C", "IC50": "> 79 µM (inactive)"}, {"smiles": "O=c1[nH]c2ccccc2cc1CN(Cc1ccco1)S(=O)(=O)c1ccc(F)cc1", "IC50": "> 79 µM (inactive)"}, {"smiles": "COc1ccc2c(=O)c(C(=O)N3CCN(S(=O)(=O)c4c(C)cc(C)cc4C)CC3)c[nH]c2c1", "IC50": "> 79 µM (inactive)"}, {"smiles": "Cc1ccc(NC(=O)CN(C)C(=O)c2cc(-c3cccs3)nn2-c2ccccc2)cc1", "IC50": "> 79 µM (inactive)"}, {"smiles": "COc1ccc(-c2cc(C(=O)N(C)C)c3ccccc3n2)cc1OC", "IC50": "71.9 µM (inactive)"}, {"smiles": "Cc1ccc(S(=O)(=O)N2CCN(C(=O)c3cc(=O)[nH]c4ccccc34)CC2)cc1C", "IC50": "> 79 µM (inactive)"}, {"smiles": "COc1ccc2c(c1OC)C(=O)N1c3ccccc3C(=O)N(c3ccc(F)cc3)C21", "note": "(configuration not stated)", "IC50": "3.4 µM"}, {"smiles": "COc1ccc(N2C(=O)c3ccccc3N3C(=O)c4c(ccc(OC)c4OC)C23)cc1", "note": "(configuration not stated)", "IC50": "1.47 µM"}, {"smiles": "COc1ccc(-n2cc(-c3ccccc3)c3c(NCc4ccccc4)ncnc32)cc1", "IC50": "> 79 µM (inactive)"}, {"smiles": "O=C1c2ccccc2N2C(=O)c3ccccc3[C@H]2N1c1ccccc1", "IC50": "> 79 µM (inactive)"}]}]}
